According to patent US20200360391A1, “Medicinal Composition for Treating Intractable Heart Disease” (Osaka University, priority 2016, published 2020):
Where two headings read alike, the source gives them in different places.

Assays:
[1] = system: rats; details: cited from earlier work; for No-observed-adverse-effect level: rats; for Dose at which toxic findings were observed: duration per compound
[2] = system: BLM-induced mouse pulmonary fibrosis model; details: cited from earlier work
[3] = system: rat coronary artery complete ischemia model; test: Model of ischemia (MI) by rat coronary artery complete ligation (Tests 1 and 2): echocardiography, body weight; details: for value of change in E.F. compared with E.F. on Day 1 / value of change in F.S. compared with F.S. on Day 1: B-MS 100, C-MS 50, F-MS 30 mg/kg s.c. single injection
[4] = system: rats; test: Repeated oral administration toxicity study in rats (dose-setting basis); details: mg/kg twice per day, oral preparation
Description: The dose-setting basis for the doses of the test substances used in pharmacological tests is as described below.

[5] = system: spontaneous dilated cardiomyopathy J2N-k baby hamsters; test: J2N-k baby hamsters (Test 4): administration alone or in combination, echocardiography, body weight; type: in vivo, hamster; details: for % FS / EF (%) / value of change in E.F. compared with E.F. at 0 W / value of change in F.S. compared with F.S. at 0 W: Test 4, dose O 0.17, C 3.3, E 15, orally twice daily, mean ± S.D.
Experimental: δ-Glycan-deficient spontaneous dilated cardiomyopathy (J2N-k) male hamsters (Japan SLC, Inc.) were delivered at 4 weeks of age. After a 1-week quarantine/acclimation, echocardiography was performed. The hamsters were grouped by stratified random assignment based on the EF values and the body weights so that each administration group was equalized.
Each test substance was individually administered twice daily (at an interval of 8 hours or more) by oral gavage, and echocardiography was performed 4 and 8 weeks after the start of administration (before dissection). Differences from the value before the start of administration (at the time of grouping) (amount of change: A) in each group were examined, and the cardiac function (EF value, FS %, etc.) was compared with that in the vehicle group (Group 1).
The doses were set according to the dose-setting basis in Test 3, and similarly orally administered twice daily. Effects of administration of combinations of two or three of carvedilol, which is a β-blocker widely used clinically, and ozagrel and/or pirfenidone were examined.

[6] = system: spontaneous dilated cardiomyopathy (J2N-k) hamster model; test: Spontaneous dilated cardiomyopathy (J2N-k) hamster model, 8-week administration from 20 weeks of age (Tests 1-3): echocardiography, body weight; details: for Minimal effective dose (screening 2): mg/kg twice per day, oral preparation
Experimental: The doses of pharmaceutical products were determined based on the no-observed-adverse-effect levels in a long-term toxicity study using rats. δ-Glycan-deficient spontaneous dilated cardiomyopathy (J2N-k) male hamsters (Japan SLC, Inc.) were delivered at 18 weeks of age. After a 2-week quarantine/acclimation, echocardiography was performed.
Each of the pharmaceutical products (A to K and O) was individually administered twice daily (at an interval of 8 hours or more) by oral gavage, and echocardiography was performed after 4 and 8 weeks (before dissection). Differences from the value before the start of administration (at the time of grouping) (amount of change: Δ) in each group were examined, and the cardiac function (EF value, FS %, etc.) was compared with that in the vehicle group (Group 1). Moreover, the heart was removed […] after the start of administration, and electron microscopy and RNA protein measurement were performed. Specimens for immunopathology were also collected and evaluated.
Each pharmaceutical product was individually suspended in 0.5% CMC-Na (sodium carboxymethylcellulose; Wako Pure Chemical Industries, Ltd.) before use, and administered. […] To Group 1 (control), 0.5% CNC-Na (vehicle) was administered.
Each pharmaceutical product was individually suspended in 0.5% CMC-Na (sodium carboxymethylcellulose; Wako Pure Chemical Industries, Ltd.) before use, and administered. Test substance G was suspended in distilled water before use, and administered.
Reason the doses were set (assuming that the adult body weight was 60 kg, the same amounts as the maximum clinical doses were set) • 1) The clinical dose of C (ozagrel; OZ) was 200 mg twice per day. The dose was thus set to 3.3 mg/kg twice per day. • 2) The clinical dose of D (cilostazol; CS) was 100 mg twice per day. The dose was thus set to 1.7 mg/kg twice per day. • 3) The clinical dose of E (pirfenidone; PF) was 600 mg three times per day, i.e., 1800 mg/day in total. The dose was thus set to 15 mg/kg twice per day. • 4) The clinical dose of G (nintedanib sulfonate; OB) was 150 mg twice per day. The dose was thus set to 2.5 mg/kg twice per day. • 5) The clinical dose of P (carvedilol; CV) was 10 mg twice per day. The dose was thus set to 0.17 mg/kg twice per day. • 6) Preparation 2 (PLGA⋅MS preparation of camostat; B⋅MS): the clinical dose of active substance camostat was 200 mg three times per day, i.e., 600 mg/day in total; thus, intermittent subcutaneous administration at a daily dose of 10 mg/kg once every 4 weeks, twice in total was set. The dose was 1/28 of the total oral dose amount.
The dose volume in oral administration was 5 mL/kg (the amount of liquid to be administered to each animal was calculated based on the most recent body weight), and administered by oral gavage using a polypropylene disposable syringe and a rat stomach tube.
The administration period of each pharmaceutical product was 8 weeks.

[7] = cited from earlier work
[8] = MI Test 1, NOAEL doses, 7 Day, mean ± S.D.
[9] = MI Test 1, NOAEL doses, 14 Day, mean ± S.D.
[10] = MI Test 1, NOAEL doses, 29 Day, mean ± S.D.
[11] = Test 1, p.o. b.i.d., NOAEL-based dose
[12] = MI Test 2, 14 Day, B 150, G 5, I 30, C 10 mg/kg p.o. b.i.d., mean ± S.D.
[13] = MI Test 2, 29 Day, B 150, G 5, I 30, C 10 mg/kg p.o. b.i.d., mean ± S.D.
[14] = Test 2, p.o. b.i.d., NOAEL-based dose

## Cc1ccc(=O)n(-c2ccccc2)c1 [Compound E, Pirfenidone]
[1]; 1 month
  No-observed-adverse-effect level: 100 mg/kg
[1]; repeated oral administration in rats
  Dose at which toxic findings were observed: ≥ 100 mg/kg
[2]; BLM-induced mouse pulmonary fibrosis model
  Minimal effective dose for antifibrosis: 30 mg/kg/day
[3]; MI Test 1, 28-day repeated oral administration b.i.d., NOAEL-based doses
  Action on left ventricular systolic function: suppression action on the deterioration of left ventricular systolic function
[3]; MI Test 1, NOAEL doses, 1 Day (grouping), mean ± S.D.
  Body weight: 232.0 ± 3.9 g
[3]; [8]
  % FS: value of change compared with the value on Day 1: 0%
  Body weight: 236.7 ± 5.3 g
  EF: value of change compared with the value on Day 1: -1%
[3]; [9]
  % FS: value of change compared with the value on Day 1: -2%
  Body weight: 257.7 ± 10.1 g
  EF: value of change compared with the value on Day 1: -4%
[3]; MI Test 1, NOAEL doses, 21 Day, mean ± S.D.
  Body weight: 272.4 ± 10.5 g
[3]; [10]
  % FS: value of change compared with the value on Day 1: -4%
  Body weight: 287.5 ± 16.2 g
  EF: value of change compared with the value on Day 1: -8%
[4]
  Maximum no-observed-adverse-effect level (screening 1): 50 mg/kg
[5]; Test 4, at grouping
  Body weight 0 W: 71.7 g
[5]; 0 W (start of administration)
  % FS: 39.0 ± 3.0%
  EF (%): 77.1 ± 3.4%
[5]; 4 W
  % FS: 34.1 ± 1.9%
  EF (%): 71.3 ± 2.4%
  value of change in E.F. compared with E.F. at 0 W: <−5.8 ± 1.9> %
  value of change in F.S. compared with F.S. at 0 W: <−4.8 ± 1.7> %
[5]; 8 W
  % FS: 29.7 ± 1.8%
  EF (%): 65.2 ± 2.6%
  value of change in E.F. compared with E.F. at 0 W: <−11.9 ± 2.8> %
  value of change in F.S. compared with F.S. at 0 W: <−9.2 ± 2.4> %
[6]; Test 1, at grouping
  Body weight 0 W: 116.1 g
[6]; Test 1, p.o. b.i.d.
  LVIDd 4 W: 6.9 mm
  LVIDd 8 W: 7.3 mm
  LVIDs 4 W: 5.7 mm
  LVIDs 8 W: 6.1 mm
[6]; [11]
  Body weight 1 W: 116.3 g
  Body weight 2 W: 118.3 g
  Body weight 3 W: 119.5 g
  Body weight 4 W: 121.4 g
[6]; Test 1, p.o. b.i.d., listed as pirfenidone
  LVIDs 8 W: significantly lower
[6]; Test 3, clinical dose
  Cardiac function (EF, FS %) actual measured value and/or amount of change compared with control, 8 W value: significant cardiac function improvement effect
  Cardiac function (EF, FS %) actual measured value or change rate compared with control, 4 W value: significant cardiac function improvement effect
[6]; Test 3, clinical dose, summary
  Cardiac function improvement effect: cardiac function improvement effect was observed
[6]
  Minimal effective dose (screening 2): 15 mg/kg
[7]; human, in vivo
  Abdominal / stomach / gastric discomfort cases: 14.0%
  Abnormal fluctuation in laboratory test values: 45.3%
  Anorexia cases: 23.0%
  Light-hypersensitivity cases: 51.7%
  Nausea cases (cilostazol: nausea/vomiting): 12.1%
  γ-GTP elevation cases: 20.0%
[7]; share of cases evaluated for safety
  Cases with side effects (including laboratory test value abnormality): 87.9%

## COC(=O)c1ccc2c(c1)NC(=O)/C2=C(\Nc1ccc(N(C)C(=O)CN2CCN(C)CC2)cc1)c1ccccc1 [Compound G, Nintedanib ethanesulfonate]
[1]; 6 months
  No-observed-adverse-effect level: 5 mg/kg
[1]; repeated administration in rats
  Dose at which toxic findings were observed: 20 mg/kg/day
[2]; prophylactic administration Day 0 to Day 14, once daily oral gavage
  Inhibitory effect on pulmonary fibrosis, 60 mg/kg versus 30 mg/kg: slightly higher inhibitory effect on pulmonary fibrosis
[2]; therapeutic administration Day 7 to Day 21, once daily oral gavage
  Dose with apparent effect on both inflammation and fibrosis: 60 mg/kg
[3]; MI Test 2, Day 14 and Day 29
  EF actual measured value and/or amount of change compared with control: significantly higher
[3]; MI Test 2, oral b.i.d. 4 weeks or single subcutaneous administration
  Values of cardiac function (EF, FS %) compared with control: significantly higher
[3]; MI Test 2, 1 Day, B 150, G 5, I 30, C 10 mg/kg p.o. b.i.d., B MS 100, C MS 50, I MS 30 mg/kg s.c. single injection, mean
  Body weight: 240.9 g
[3]; MI Test 2, 7 Day, B 150, G 5, I 30, C 10 mg/kg p.o. b.i.d., B MS 100, C MS 50, I MS 30 mg/kg s.c. single injection, mean
  Body weight: 248.1 g
[3]; MI Test 2, 14 Day, B 150, G 5, I 30, C 10 mg/kg p.o. b.i.d., B MS 100, C MS 50, I MS 30 mg/kg s.c. single injection, mean
  Body weight: 273.9 g
[3]; [12]
  value of change in E.F. compared with E.F. on Day 1: <−6.2 ± 1.8> %
  value of change in F.S. compared with F.S. on Day 1: <−3.4 ± 1.1> %
[3]; MI Test 2, 21 Day, B 150, G 5, I 30, C 10 mg/kg p.o. b.i.d., B MS 100, C MS 50, I MS 30 mg/kg s.c. single injection, mean
  Body weight: 290.5 g
[3]; MI Test 2, 29 Day, B 150, G 5, I 30, C 10 mg/kg p.o. b.i.d., B MS 100, C MS 50, I MS 30 mg/kg s.c. single injection, mean
  Body weight: 311.0 g
[3]; [13]
  value of change in E.F. compared with E.F. on Day 1: <−11.0 ± 2.7> %
  value of change in F.S. compared with F.S. on Day 1: <−5.8 ± 3.6> %
[4]
  Maximum no-observed-adverse-effect level (screening 1): 5 mg/kg
[6]; Test 2, at grouping
  Body weight 0 W: 121.6 g
[6]; Test 2, p.o. b.i.d.
  LVIDd 4 W: 6.9 mm
  LVIDd 8 W: 7.2 mm
  LVIDs 4 W: 5.7 ± mm
  LVIDs 8 W: 6.1 ± mm
[6]; [14]
  % FS 4 W: significantly higher
  % FS value of change at 4 W compared with 0 W: significantly higher
  Body weight 1 W: 121.3 g
  Body weight 2 W: 122.0 g
  Body weight 3 W: 123.8 g
  Body weight 4 W: 126.1 g
  Body weight 5 W: 127.1 g
  Body weight 7 W: 129.2 g
  Body weight 8 W: 128.9 g
  EF 4 W: significantly higher
[6]; Test 2, p.o. b.i.d., listed as nintedanib
  LVIDs 8 W: significantly lower
[6]; Test 3, clinical dose
  Cardiac function (EF, FS %) actual measured value and/or amount of change compared with control, 8 W value: significant cardiac function improvement effect
[6]
  Minimal effective dose (screening 2): 2.5 mg/kg
[7]; human, in vivo
  Abdominal pain cases: 10.2%
  Diarrhea cases: 53.6%
  Elevated AST (GOT) and/or ALT (GPT) / liver enzyme cases: 10.5%
  Nausea cases (cilostazol: nausea/vomiting): 19.1%
